From patent publication US9260425B2 (Genetech, Inc., priority 2011, dated 2016)

molecular target: Pim-1 (Homo sapiens (Human), UniProt P11309); assay: Pim kinase binding activity assay (Example 901), PIM-1 enzyme, Caliper microfluidic peptide phosphorylation; type: biochemical; details: 20 pM PIM-1, 10 μM ATP, 1 μM FAM-peptide, 90 minutes at room temperature
Summary of the method: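 The readout was microfluidic mobility-shift separation of a FAM-tagged Pim-specific peptide, excited at 488 nm and read at 530 nm, with Ki calculated from percent conversion. Reactions held 20 pM PIM-1, 1 μM peptide and 10 μM ATP in pH 7.2 HEPES/MgCl2/DTT buffer, ran 90 min at room temperature and were stopped with EDTA.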

Chain of Pim-1 (P11309 whole entry): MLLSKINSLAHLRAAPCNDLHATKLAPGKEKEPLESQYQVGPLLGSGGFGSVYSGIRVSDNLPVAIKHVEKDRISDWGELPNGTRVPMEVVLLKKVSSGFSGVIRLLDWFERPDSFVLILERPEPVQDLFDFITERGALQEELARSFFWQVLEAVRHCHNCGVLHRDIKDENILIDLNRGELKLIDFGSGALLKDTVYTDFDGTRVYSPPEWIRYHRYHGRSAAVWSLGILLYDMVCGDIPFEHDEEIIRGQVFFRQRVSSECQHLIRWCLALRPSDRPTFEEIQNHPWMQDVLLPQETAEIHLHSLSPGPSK

Structure (SMILES)	Ki [nM]
O[C@@H]1CCCN(c2nc(-c3n[nH]c4cnc(-c5cccnc5)cc34)ccc2Br)C1 [Example 291, (R)-1-(3-bromo-6-(5-(pyridin-3-yl)-1H-pyrazolo[3,4-c]pyridin-3-yl)pyridin-2-yl)piperidin-3-ol]	0.261
OC1CCN(c2nc(-c3n[nH]c4cnc(-c5cccnc5)cc34)ccc2Br)CC1 [Example 292, 1-(3-bromo-6-(5-(pyridin-3-yl)-1H-pyrazolo[3,4-c]pyridin-3-yl)pyridin-2-yl)piperidin-4-ol]	0.181
O[C@@H]1CCN(c2nc(-c3n[nH]c4cnc(-c5cccnc5)cc34)ccc2Br)C1 [Example 293, (R)-1-(3-bromo-6-(5-(pyridin-3-yl)-1H-pyrazolo[3,4-c]pyridin-3-yl)pyridin-2-yl)pyrrolidin-3-ol]	0.412
Cn1cc(-c2cc3c(-c4cccc(N5CCC(O)CC5)n4)n[nH]c3cn2)cn1 [Example 294, 1-(6-(5-(1-methyl-1H-pyrazol-4-yl)-1H-pyrazolo[3,4-c]pyridin-3-yl)pyridin-2-yl)piperidin-4-ol]	0.168
NC(=O)Nc1cc2c(-c3cccc(N4CCC[C@H](N)C4)n3)n[nH]c2cn1 [Example 298, (S)-1-(3-(6-(3-aminopiperidin-1-yl)pyridin-2-yl)-1H-pyrazolo[3,4-c]pyridin-5-yl)urea]	14.1
N[C@H]1CCC[C@@H](Oc2cccc(-c3n[nH]c4cnc(-c5cccnc5)cc34)n2)C1 [Example 299, (1S,3R)-3-(6-(5-(pyridin-3-yl)-1H-pyrazolo[3,4-c]pyridin-3-yl)pyridin-2-yloxy)cyclohexanamine]	0.664
N[C@@H]1CCCN(c2nccc(-c3n[nH]c4cnc(-c5cccnc5)cc34)n2)C1 [Example 300, (R)-1-(4-(5-(pyridin-3-yl)-1H-pyrazolo[3,4-c]pyridin-3-yl)pyrimidin-2-yl)piperidin-3-amine]	0.07
Cc1ccc(-c2n[nH]c3cnc(-c4cccnc4)cc23)nc1N1CC[C@@H](O)C1 [Example 306, (R)-1-(3-methyl-6-(5-(pyridin-3-yl)-1H-pyrazolo[3,4-c]pyridin-3-yl)pyridin-2-yl)pyrrolidin-3-ol]	0.22
Cc1ccc(-c2n[nH]c3cnc(-c4cccnc4)cc23)nc1N1CCC[C@@H](N)C1 [Example 310, (R)-1-(3-methyl-6-(5-(pyridin-3-yl)-1H-pyrazolo[3,4-c]pyridin-3-yl)pyridin-2-yl)piperidin-3-amine]	0.137
N[C@H]1C[C@@H](F)CN(c2cccc(-c3n[nH]c4cnc(-c5cccnc5)cc34)n2)C1 [Example 321, (3S,5R)-5-fluoro-1-(6-(5-(pyridin-3-yl)-1H-pyrazolo[3,4-c]pyridin-3-yl)pyridin-2-yl)piperidin-3-amine]	0.0662
O=C1CN(c2cccc(-c3n[nH]c4cnc(-c5cccnc5)cc34)n2)CCCN1 [Example 322, 4-(6-(5-(pyridin-3-yl)-1H-pyrazolo[3,4-c]pyridin-3-yl)pyridin-2-yl)-1,4-diazepan-2-one]	0.322
NC1CCN(C(=O)C2CCN(c3n[nH]c4cnc(-c5cccnc5)cc34)C2=O)CC1 (centres unmarked) [Example 325, 3-(4-aminopiperidine-1-carbonyl)-1-(5-(pyridin-3-yl)-1H-pyrazolo[3,4-c]pyridin-3-yl)pyrrolidin-2-one]	106
CCc1ccc(-c2n[nH]c3cnc(-c4cccnc4)cc23)nc1N1CCC[C@H](N)C1 [Example 327, (S)-1-(3-ethyl-6-(5-(pyridin-3-yl)-1H-pyrazolo[3,4-c]pyridin-3-yl)pyridin-2-yl)piperidin-3-amine]	0.035
CC(C)c1ccc(-c2n[nH]c3cnc(-c4cccnc4)cc23)nc1N1CCC[C@H](N)C1 [Example 328, (S)-1-(3-isopropyl-6-(5-(pyridin-3-yl)-1H-pyrazolo[3,4-c]pyridin-3-yl)pyridin-2-yl)piperidin-3-amine]	0.046
CN1CCN(c2cc3c(-c4ccccc4)n[nH]c3cn2)CC1=O [Example 330, 1-methyl-4-(3-phenyl-1H-pyrazolo[3,4-c]pyridin-5-yl)piperazin-2-one]	660
Cn1cc(-c2cc3c(-c4ccccn4)n[nH]c3cn2)cn1 [Example 332, 5-(1-methyl-1H-pyrazol-4-yl)-3-(pyridin-2-yl)-1H-pyrazolo[3,4-c]pyridine]	7.71
O=C1CN(c2cc3c(-c4cccc(N5CCNCC5)n4)n[nH]c3cn2)CCN1 [Example 335, 4-(3-(6-(piperazin-1-yl)pyridin-2-yl)-1H-pyrazolo[3,4-c]pyridin-5-yl)piperazin-2-one]	12.6

Continued by falling Ki, values first:

Ki [nM]	Structure (SMILES)
721	CN1CCN(c2cc3c(-c4cnn(C)c4)n[nH]c3cn2)CC1=O [Example 331, 1-methyl-4-(3-(1-methyl-1H-pyrazol-4-yl)-1H-pyrazolo[3,4-c]pyridin-5-yl)piperazin-2-one]
39.9	O=C1N(c2n[nH]c3cnc(-c4cccnc4)cc23)CCC12CCNCC2 [Example 295, 2-(5-(pyridin-3-yl)-1H-pyrazolo[3,4-c]pyridin-3-yl)-2,8-diazaspiro[4.5]decan-1-one]
33	c1ccc(-c2n[nH]c3cnc(-c4cncs4)cc23)cc1 [Example 323, 5-(3-phenyl-1H-pyrazolo[3,4-c]pyridin-5-yl)thiazole]
17.7	NCCNC(=O)c1cccc(-c2n[nH]c3cnc(-c4cccnc4)cc23)n1 [Example 326, N-(2-aminoethyl)-6-(5-(pyridin-3-yl)-1H-pyrazolo[3,4-c]pyridin-3-yl)picolinamide]
16.5	O=C(NC1CNC1)c1cccc(-c2n[nH]c3cnc(-c4cccnc4)cc23)n1 [Example 329, N-(azetidin-3-yl)-6-(5-(pyridin-3-yl)-1H-pyrazolo[3,4-c]pyridin-3-yl)picolinamide]
9.74	O=C1N(CC2CCNCC2)CCN1c1n[nH]c2cnc(-c3cccnc3)cc12 [Example 296, 1-(piperidin-4-ylmethyl)-3-(5-(pyridin-3-yl)-1H-pyrazolo[3,4-c]pyridin-3-yl)imidazolidin-2-one]
6	NC(=O)c1ccnc(-c2n[nH]c3cnc(-c4cccnc4)cc23)c1 [Example 302, 2-(5-(pyridin-3-yl)-1H-pyrazolo[3,4-c]pyridin-3-yl)isonicotinamide]
4.11	O=C1N(CC2CCNC2)CCN1c1n[nH]c2cnc(-c3cccnc3)cc12 (centres unmarked) [Example 303, 1-(5-(pyridin-3-yl)-1H-pyrazolo[3,4-c]pyridin-3-yl)-3-(pyrrolidin-3-ylmethyl)imidazolidin-2-one]
3.86	c1cncc(-c2cc3c(N4CCC(N5CCNCC5)C4)n[nH]c3cn2)c1 (centres unmarked) [Example 320, 3-(3-(piperazin-1-yl)pyrrolidin-1-yl)-5-(pyridin-3-yl)-1H-pyrazolo[3,4-c]pyridine]
1.57	N[C@H]1CCN(c2ccc(-c3n[nH]c4cnc(-c5cccnc5)cc34)nc2)C1=O [Example 334, (S)-3-amino-1-(6-(5-(pyridin-3-yl)-1H-pyrazolo[3,4-c]pyridin-3-yl)pyridin-3-yl)pyrrolidin-2-one]
0.296	NCC1CCCCN1c1cccc(-c2n[nH]c3cnc(-c4cccnc4)cc23)n1 (centres unmarked) [Example 324, (1-(6-(5-(pyridin-3-yl)-1H-pyrazolo[3,4-c]pyridin-3-yl)pyridin-2-yl)piperidin-2-yl)methanamine]
0.13	NCCC1CCN(c2cccc(-c3n[nH]c4cnc(-c5cccnc5)cc34)n2)C1 (centres unmarked) [Example 333, 2-(1-(6-(5-(pyridin-3-yl)-1H-pyrazolo[3,4-c]pyridin-3-yl)pyridin-2-yl)pyrrolidin-3-yl)ethanamine]
0.112	Cc1ccc(-c2n[nH]c3cnc(-c4cccnc4)cc23)nc1N1CCC[C@@H](O)C1 [Example 309, (R)-1-(3-methyl-6-(5-(pyridin-3-yl)-1H-pyrazolo[3,4-c]pyridin-3-yl)pyridin-2-yl)piperidin-3-ol]
0.091	Cc1ccc(-c2n[nH]c3cnc(-c4cccnc4)cc23)nc1N1CC[C@H](O)C1 [Example 305, (S)-1-(3-methyl-6-(5-(pyridin-3-yl)-1H-pyrazolo[3,4-c]pyridin-3-yl)pyridin-2-yl)pyrrolidin-3-ol]
0.059	Cc1ccc(-c2n[nH]c3cnc(-c4cccnc4)cc23)nc1N1CC[C@H](N)C1 [Example 317, (S)-1-(3-methyl-6-(5-(pyridin-3-yl)-1H-pyrazolo[3,4-c]pyridin-3-yl)pyridin-2-yl)pyrrolidin-3-amine]
0.059	O[C@H]1CCN(c2nc(-c3n[nH]c4cnc(-c5cccnc5)cc34)ccc2Br)C1 [Example 318, (S)-1-(3-bromo-6-(5-(pyridin-3-yl)-1H-pyrazolo[3,4-c]pyridin-3-yl)pyridin-2-yl)pyrrolidin-3-ol]
0.034	Cn1cc(-c2cc3c(-c4cccc(NCC(C)(C)O)n4)n[nH]c3cn2)cn1 [Example 297, 2-methyl-1-(6-(5-(1-methyl-1H-pyrazol-4-yl)-1H-pyrazolo[3,4-c]pyridin-3-yl)pyridin-2-ylamino)propan-2-ol]
0.029	N[C@H]1CCCN(c2nc(-c3n[nH]c4cnc(-c5cccnc5)cc34)ccc2Br)CC1 [Example 312, (S)-1-(3-bromo-6-(5-(pyridin-3-yl)-1H-pyrazolo[3,4-c]pyridin-3-yl)pyridin-2-yl)azepan-4-amine]
0.028	N[C@@H]1CCCN(c2nc(-c3n[nH]c4cnc(-c5cccnc5)cc34)ccc2Br)CC1 [Example 313, (R)-1-(3-bromo-6-(5-(pyridin-3-yl)-1H-pyrazolo[3,4-c]pyridin-3-yl)pyridin-2-yl)azepan-4-amine]
0.01	C=C(C)c1ccc(-c2n[nH]c3cnc(-c4cccnc4)cc23)nc1N1CCC[C@H](N)C1 [Example 308, (S)-1-(3-(prop-1-en-2-yl)-6-(5-(pyridin-3-yl)-1H-pyrazolo[3,4-c]pyridin-3-yl)pyridin-2-yl)piperidin-3-amine]
0.00806	Cc1ccc(-c2n[nH]c3cnc(-c4cccnc4)cc23)nc1N1CCC[C@H](N)C1 [Example 315, (S)-1-(3-methyl-6-(5-(pyridin-3-yl)-1H-pyrazolo[3,4-c]pyridin-3-yl)pyridin-2-yl)piperidin-3-amine]
